Assay results published in US7858125B2, “Multi-component biocide composition for wood protection” (priority 2006, dated 2010).

Legend:
[1] = tested on: mixed spore preparation of Aspergillus niger, Penicillium chrysogenum and Trichoderma viride; assay: Mold resistance of dip-treated wood stakes (ASTM D4445-91), mixed mold spore inoculum; format: cell-based; conditions: Example 4; unseasoned southern yellow pine stakes dip-treated 15 s, 4 weeks, 27° C., 70% RH; scale 0-5
Source text: The biocide compositions were first tested for the efficacy in preventing mold fungal growth. The mold fungi used in the mold growth analysis included Aspergillus niger 2.242 (available from University of Virginia, Charlottesville, Va.), Penicillium chrysogenum PH02 (an isolate provided by Forest Products Laboratory, Madison, Wis.) and Trichoderma viride ATCC 20476 (available from American Type Culture Collection, Rockville, Md.). The mold fungi were first prepared by growing the various mold fungi species on 2% malt agar. A mixed spore preparation was then prepared by washing the surface of a 2-week old culture of each fungus with 10 milliliters of sterile deionized (DI) water according to the American Society for Testing and Materials (ASTM) standard D4445-91 (1998). Spore suspensions were transferred to a spray bottle and diluted to 100 milliliters with DI water. The spray bottle was adjusted to deliver 1 milliliter inoculum/spray.
Specimens (7×20 millimeters cross section by 7 centimeters long) were cut from unseasoned southern yellow pine mill ends from a Mississippi sawmill and stored at 0° C. Average moisture content of the specimens was 48% by weight (n=3). Southern yellow pine oriented strand board (OSB) specimens (11×20 millimeters cross section by 7 centimeters long) were cut from a full sheet of OSB and conditioned to 70% relative humidity. Five replicate specimen stakes were dip-treated for approximately 15 seconds in each biocide composition and held in a covered container overnight according to the ASTM standard test method D4445-91 (1998). Specimens were then arranged over four layers of blotting paper that was saturated with 30 milliliters DI water and a polyethylene mesh spacer in sterile disposable Petri dishes (150×25 millimeters) (commercially available from B-D Falcon, Los Angeles, Calif.). Untreated stakes were dipped in DI water and served as Control A for water-based test chemicals. Additional stakes were dipped in 70% (by weight) ethanol to serve as Control B for test chemicals of low solubility. […]

[2] = tested on: Reticulotermes flavipes (Kollar); assay: Termite bioassay, no-choice test procedure; format: in vivo; conditions: dip-treated southern yellow pine blocks, four weeks; for Termite Bioassay Mortality Rating: 1 gram of termites, 27° C., 80% RH; for Termite Bioassay Attack Rating: visual rating 10 (no attack), 9 light, 7 moderate, 4 heavy, 0 (complete failure)
Source text: The biocide compositions were additionally evaluated for their ability to inhibit termite infestation. Specifically, numerous samples of the subterranean termite, Reticulotermes flavipes (Kollar), were collected in Janesville, Wis. for a termite bioassay.
To begin the termite bioassay, pre-weighed and pre-conditioned southern yellow pine blocks (1×1×1 centimeter) (n=5) were dip-treated with either the biocide compositions prepared above or the individual components. Five control samples were prepared by dipping blocks into DI water.
Each block was conditioned to ensure all solvent had dissipated prior to being subjected to a termite bioassay according to no-choice test procedure (ASTM 1998). Each block was then placed in a lidded test dish with 50 grams sand, […] of DI water, and 1 gram of termites. The dishes were incubated at 27° C. and 80% relative humidity for four weeks. The dishes were examined after one and four weeks for tunneling and mortality. The mortality was scaled using a label of “none” (representing a mortality rating of 0%); “slight” (representing a mortality rating of from 1% to 33%); “moderate” (representing a mortality rating of from 34% to 66%) “heavy” (representing a mortality rating of from 67% to 99%); or “complete” (representing a mortality rating of 100%). At the end of the four-week test period, the blocks were removed from the dishes, cleaned, dried, re-conditioned and weighed to determine weight loss of the block, indicating the relative wood consumption of the block by the termites. Additionally, a visual rating of 10 (representing no attack); 9 (representing a light attack); 7 (representing a moderate attack); 4 (representing a heavy attack); or 0 (representing complete failure in inhibiting termite infestation), was recorded for each sample block.

P. placenta = assay: Soil block test (AWPA E-10-01), brown-rot decay; format: cell-based, Postia placenta MAD 698; conditions: vacuum-treated southern yellow pine blocks, 12 weeks (Example 1 text; Example 4, FIG. 1)
Procedure: (§1) In addition to the mold fungi analysis above, the biocide compositions were tested for their efficacy in preventing decay fungal growth. The decay fungi used in the decay fungal growth analysis included Postia placenta MAD 698 (Fries) Lars. & Lomb., Gloeophyllum trabeum MAD 617 (Pers:Fries) Murrill, and Coriolus versicolor MAD 697 (L.:Fr.) Pilat. The decay fungi, all obtained from the Center of Forest Mycology Research (Forest Products Laboratory, Madison, Wis.) were maintained on 2% malt agar.
(§2) To test the biocide compositions' abilities to inhibit decay fungal growth, soil block culture bottles were prepared according to American Wood Preservers' Association (AWPA) E-10-01 (2003). Southern yellow pine feeders were inoculated with two brown-rot fungus, P. placenta and G. trabeum and maple feeders were inoculated with one white-rot fungus, C. versicolor. Bottles were incubated at 27° C. and 70% relative humidity for three weeks until the fungus completely colonized each feeder. […] The blocks were weighed and the average percentage weight loss was calculated. […]
(§3) To test the biocide compositions' abilities to inhibit decay fungal growth, soil block culture bottles were first prepared according to American Wood Preservers' Association (AWPA) E-10-01 (2003). […] The blocks were weighed and the average percentage weight loss was calculated.

G. trabeum = assay: Soil block test (AWPA E-10-01), brown-rot decay; format: cell-based, Gloeophyllum trabeum MAD 617; conditions: vacuum-treated southern yellow pine blocks, 12 weeks (Example 1 text; Example 4, FIG. 1)
Procedure: as §1, §2, §3

C. versicolor = assay: Soil block test (AWPA E-10-01), white-rot decay; format: cell-based, Coriolus versicolor MAD 697; conditions: vacuum-treated southern yellow pine blocks, 12 weeks (Example 1 text; Example 4, FIG. 1)
Procedure: as §1, §2, §3

Coptotermes formosans = assay: Termite bioassay, no-choice test procedure; format: in vivo; conditions: dip-treated southern yellow pine blocks, 1 gram of termites, four weeks, 27° C., 80% RH
Procedure: In this Example, various concentrations of a biocide composition were evaluated for its ability to inhibit termite infestation. The ability of the biocide composition was then compared to the ability of disodium octaborate tetrahydrate, a borate component, alone and an untreated control to inhibit termite infestation. Specifically, samples of the subterranean termite, Coptotermes formosans, were collected at the Formosan Termite Research Facility at McNeill, Miss. for a termite bioassay. To begin the termite bioassay, pre-weighed and pre-conditioned southern yellow pine blocks (1×1×1 centimeter) (n=5) were dip-treated with two concentrations of a biocide composition. A first control sample (Control A) was prepared by dipping blocks into DI water. A second control sample (Control B) was prepared by dipping the blocks into 0.28% (by weight) disodium octaborate tetrahydrate. […] Each block was conditioned to ensure all solvent had dissipated prior to being subjected to a termite bioassay according to no-choice test procedure (ASTM 1998). […] Damp filter paper was placed into the lid of each dish to help maintain humidity during a four-week incubation at 27° C. and 80% relative humidity. The dishes were examined daily and mortality of the termites was recorded. […]

Row | Compound | Mold Resistance Average Rating, Southern Pine [1] | Termite Bioassay Mortality Rating [2] | Termite Bioassay Attack Rating [2] | Inhibition of decay by P. placenta, in words (P. placenta) | Inhibition of decay by G. trabeum, in words (G. trabeum) | Inhibition of decay by C. versicolor, in words (C. versicolor) | Average Weight Loss (%) (Coptotermes formosans)
1 | C[C@@H](c1ncncc1F)[C@](O)(Cn1cncn1)c1ccc(F)cc1F [E, Voriconazole] | 0.04 | None | 0.0 | – | – | – | –
2 | Thujaplicin (isopropyltropolone) | – | – | – | did not inhibit decay | did not inhibit decay | did not inhibit decay | –
3 | c1ccc2[nH]c(-c3cscn3)nc2c1 [F, Thiabendazole] | 0.0 | None | 0.0 | – | – | – | –
4 | O.O.O.O.O=BOB1OB(OB=O)OB2OB([O-])OB([O-])OB(O1)O2.[Na+].[Na+] [Control B, disodium octaborate tetrahydrate] | – | – | – | – | – | – | 4.20
5 | CC(C)c1cccc(O)c(=O)c1 [G, Thujaplicin (isopropyltropolone)] | 3.2 | None | 0.0 | – | – | – | –
